Columns and labels:
green foxtail [1] = assay: Test Example 5: herbicidal effect by foliage application, plastic box (Table 20, symbol G); type: in vivo, green foxtail (Setaria viridis); conditions: foliage application, AAH 320 g/ha, evaluated three weeks after application
How it was run: (§1)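 Post-emergence foliar test in sterilized diluvial soil. Compound applied as water-diluted emulsion at a predetermined rate to 14-day-old plants; evaluation at three weeks.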

lambsquarters [2] = assay: Test Example 5: herbicidal effect by foliage application, plastic box (Table 20, symbol O); type: in vivo, lambsquarters (Chenopodium album); conditions: foliage application, AAH 320 g/ha, evaluated three weeks after application
How it was run: as §1

false cleavers = assay: Test Example 4: herbicidal effect by soil treatment (Table 19, symbol Q); type: in vivo, false cleavers (Galium spurium); conditions: amount of applied herbicide 320 g/ha
How it was run: (§2)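 Emulsion of test compound, water-diluted to predetermined amount, sprayed on soil after sowing (seed depth ~1.5 cm, sterilized diluvial soil). Greenhouse, 25–30° C. Effect graded at three weeks post-spray.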

Japanese bulrush = assay: Test Example 1: herbicidal activity, application before weed generation under submerged conditions (Table 16, symbol B); type: in vivo, Japanese bulrush (Schoenoplectus juncoides); conditions: 320 g/ha applied herbicide
How it was run: (§3)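 Submerged Wagner pots (alluvial soil, 4 cm water) sown with weed seeds and planted with 2.5-leaf rice seedlings; emulsifiable concentrate diluted in water applied to water surface on sowing day. Held in greenhouse at 25-30 °C; injury scored 0-5 by herbicidal rate after three weeks.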

windgrass [3] = assay: Test Example 4: herbicidal effect by soil treatment (Table 19, symbol L); type: in vivo, windgrass (Apera spica-venti); conditions: amount of applied herbicide 320 g/ha
How it was run: as §2

Italian ryegrass [4] = assay: Test Example 5: herbicidal effect by foliage application, plastic box (Table 20, symbol K); type: in vivo, Italian ryegrass (Lolium multiflorum); conditions: foliage application, AAH 320 g/ha, evaluated three weeks after application
How it was run: as §1

lambsquarters [5] = assay: Test Example 4: herbicidal effect by soil treatment (Table 19, symbol O); type: in vivo, lambsquarters (Chenopodium album); conditions: amount of applied herbicide 320 g/ha
How it was run: as §2

rice flat sedge = assay: Test Example 3: herbicidal effect by foliage application, Wagner pot (Table 18, symbol E); type: in vivo, rice flat sedge (Cyperus iria); conditions: amount of applied herbicide 320 g/ha
How it was run: (§4)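 Plants were sown in alluvial soil held under 0.1–0.5 cm standing water and grown 14 days in a greenhouse at 25–30 °C. An emulsifiable formulation, water-diluted to the set dose, was then sprayed onto the foliage, and effects were scored three weeks later using previously defined criteria.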

Italian ryegrass [6] = assay: Test Example 4: herbicidal effect by soil treatment (Table 19, symbol K); type: in vivo, Italian ryegrass (Lolium multiflorum); conditions: amount of applied herbicide 320 g/ha
How it was run: as §2

persian speedwell [7] = assay: Test Example 5: herbicidal effect by foliage application, plastic box (Table 20, symbol R); type: in vivo, Persian speedwell (Veronica persica); conditions: foliage application, AAH 320 g/ha, evaluated three weeks after application
How it was run: as §1

redroot pigweed [8] = assay: Test Example 4: herbicidal effect by soil treatment (Table 19, symbol N); type: in vivo, redroot pigweed (Amaranthus retroflexus); conditions: amount of applied herbicide 320 g/ha
How it was run: as §2

persian speedwell [9] = assay: Test Example 4: herbicidal effect by soil treatment (Table 19, symbol R); type: in vivo, Persian speedwell (Veronica persica); conditions: amount of applied herbicide 320 g/ha
How it was run: as §2

southern crabgrass [10] = assay: Test Example 5: herbicidal effect by foliage application, plastic box (Table 20, symbol F); type: in vivo, southern crabgrass (Digitaria ciliaris); conditions: foliage application, AAH 320 g/ha, evaluated three weeks after application
How it was run: as §1

oval-leafed pondweed = assay: Test Example 1: herbicidal activity, application before weed generation under submerged conditions (Table 16, symbol C); type: in vivo, oval-leafed pondweed (Monochoria vaginalis); conditions: 320 g/ha applied herbicide
How it was run: as §3

barnyard grass [11] = assay: Test Example 3: herbicidal effect by foliage application, Wagner pot (Table 18, symbol H); type: in vivo, barnyard grass (Echinochloa crus-galli); conditions: amount of applied herbicide 320 g/ha
How it was run: as §4

green foxtail [12] = assay: Test Example 4: herbicidal effect by soil treatment (Table 19, symbol G); type: in vivo, green foxtail (Setaria viridis); conditions: amount of applied herbicide 320 g/ha
How it was run: as §2

wild oat [13] = assay: Test Example 5: herbicidal effect by foliage application, plastic box (Table 20, symbol I); type: in vivo, wild oat (Avena fatua); conditions: foliage application, AAH 320 g/ha, evaluated three weeks after application
How it was run: as §1

velvetleaf [14] = assay: Test Example 4: herbicidal effect by soil treatment (Table 19, symbol M); type: in vivo, velvetleaf (Abutilon theophrasti); conditions: amount of applied herbicide 320 g/ha
How it was run: as §2

barnyard grass [15] = assay: Test Example 5: herbicidal effect by foliage application, plastic box (Table 20, symbol H); type: in vivo, barnyard grass (Echinochloa crus-galli); conditions: foliage application, AAH 320 g/ha, evaluated three weeks after application
How it was run: as §1

Chinese sprangletop = assay: Test Example 3: herbicidal effect by foliage application, Wagner pot (Table 18, symbol D); type: in vivo, chinese sprangletop (Leptochloa chinensis); conditions: amount of applied herbicide 320 g/ha
How it was run: as §4

velvetleaf [16] = assay: Test Example 5: herbicidal effect by foliage application, plastic box (Table 20, symbol M); type: in vivo, velvetleaf (Abutilon theophrasti); conditions: foliage application, AAH 320 g/ha, evaluated three weeks after application
How it was run: as §1

barnyard grass [17] = assay: Test Example 4: herbicidal effect by soil treatment (Table 19, symbol H); type: in vivo, barnyard grass (Echinochloa crus-galli); conditions: amount of applied herbicide 320 g/ha
How it was run: as §2

redroot pigweed [18] = assay: Test Example 5: herbicidal effect by foliage application, plastic box (Table 20, symbol N); type: in vivo, redroot pigweed (Amaranthus retroflexus); conditions: foliage application, AAH 320 g/ha, evaluated three weeks after application
How it was run: as §1

wild oat [19] = assay: Test Example 4: herbicidal effect by soil treatment (Table 19, symbol I); type: in vivo, wild oat (Avena fatua); conditions: amount of applied herbicide 320 g/ha
How it was run: as §2

windgrass [20] = assay: Test Example 5: herbicidal effect by foliage application, plastic box (Table 20, symbol L); type: in vivo, windgrass (Apera spica-venti); conditions: foliage application, AAH 320 g/ha, evaluated three weeks after application
How it was run: as §1

blackgrass [21] = assay: Test Example 5: herbicidal effect by foliage application, plastic box (Table 20, symbol J); type: in vivo, blackgrass (Alopecurus myosuroides); conditions: foliage application, AAH 320 g/ha, evaluated three weeks after application
How it was run: as §1

chickweed = assay: Test Example 5: herbicidal effect by foliage application, plastic box (Table 20, symbol P); type: in vivo, common chickweed (Stellaria media); conditions: foliage application, AAH 320 g/ha, evaluated three weeks after application
How it was run: as §1

late watergrass = assay: Test Example 1: herbicidal activity, application before weed generation under submerged conditions (Table 16, symbol A); type: in vivo, late watergrass (Echinochloa oryzicola); conditions: 320 g/ha applied herbicide
How it was run: as §3

southern crabgrass [22] = assay: Test Example 4: herbicidal effect by soil treatment (Table 19, symbol F); type: in vivo, southern crabgrass (Digitaria ciliaris); conditions: amount of applied herbicide 320 g/ha
How it was run: as §2

blackgrass [23] = assay: Test Example 4: herbicidal effect by soil treatment (Table 19, symbol J); type: in vivo, blackgrass (Alopecurus myosuroides); conditions: amount of applied herbicide 320 g/ha
How it was run: as §2

Row | Compound | G: green foxtail, herbicidal effect (criteria 0-5) (green foxtail [1]) | O: lambsquarters, herbicidal effect (criteria 0-5) (lambsquarters [2]) | herbicidal effect on Q: false cleavers (false cleavers) | Herbicidal effect on B: Japanese bulrush (grade 0-5) (Japanese bulrush) | herbicidal effect on L: windgrass (windgrass [3]) | K: Italian ryegrass, herbicidal effect (criteria 0-5) (Italian ryegrass [4]) | herbicidal effect on O: lambsquarters (lambsquarters [5]) | herbicidal effect on E: rice flat sedge (rice flat sedge) | herbicidal effect on K: Italian ryegrass (Italian ryegrass [6]) | R: persian speedwell, herbicidal effect (criteria 0-5) (persian speedwell [7]) | herbicidal effect on N: redroot pigweed (redroot pigweed [8]) | herbicidal effect on R: persian speedwell (persian speedwell [9]) | F: southern crabgrass, herbicidal effect (criteria 0-5) (southern crabgrass [10]) | Herbicidal effect on C: oval-leafed pondweed (grade 0-5) (oval-leafed pondweed) | herbicidal effect on H: barnyard grass (barnyard grass [11]) | herbicidal effect on G: green foxtail (green foxtail [12]) | I: wild oat, herbicidal effect (criteria 0-5) (wild oat [13]) | herbicidal effect on M: velvetleaf (velvetleaf [14]) | H: barnyard grass, herbicidal effect (criteria 0-5) (barnyard grass [15]) | herbicidal effect on D: Chinese sprangletop (Chinese sprangletop) | also measured
1 | Cc1nn(C)c(=O)c(-c2c(-c3ccc(SCC(F)F)cc3)sc3ccc(F)cc23)c1O [2-260] | 5 (Herbicidal rate of 90% or more (almost completely withered)) | 5 (Herbicidal rate of 90% or more (almost completely withered)) | 0 (Herbicidal rate of 5% or less (almost no effect)) | 0 (Herbicidal rate of 5% or less (almost no effect)) | 0 (Herbicidal rate of 5% or less (almost no effect)) | 5 (Herbicidal rate of 90% or more (almost completely withered)) | 5 (Herbicidal rate of 90% or more (almost completely withered)) | 3 (Herbicidal rate of 40% or more and less than 70%) | 0 (Herbicidal rate of 5% or less (almost no effect)) | 5 (Herbicidal rate of 90% or more (almost completely withered)) | 5 (Herbicidal rate of 90% or more (almost completely withered)) | 3 (Herbicidal rate of 40% or more and less than 70%) | 5 (Herbicidal rate of 90% or more (almost completely withered)) | 0 (Herbicidal rate of 5% or less (almost no effect)) | 5 (Herbicidal rate of 90% or more (almost completely withered)) | 5 (Herbicidal rate of 90% or more (almost completely withered)) | 5 (Herbicidal rate of 90% or more (almost completely withered)) | 3 (Herbicidal rate of 40% or more and less than 70%) | 5 (Herbicidal rate of 90% or more (almost completely withered)) | 3 (Herbicidal rate of 40% or more and less than 70%) | M: velvetleaf, herbicidal effect (criteria 0-5) (velvetleaf [16]): 4 (Herbicidal rate of 70% or more and less than 90%); herbicidal effect on H: barnyard grass (barnyard grass [17]): 3 (Herbicidal rate of 40% or more and less than 70%); N: redroot pigweed, herbicidal effect (criteria 0-5) (redroot pigweed [18]): 5 (Herbicidal rate of 90% or more (almost completely withered)); herbicidal effect on I: wild oat (wild oat [19]): 0 (Herbicidal rate of 5% or less (almost no effect)); L: windgrass, herbicidal effect (criteria 0-5) (windgrass [20]): 5 (Herbicidal rate of 90% or more (almost completely withered)); J: blackgrass, herbicidal effect (criteria 0-5) (blackgrass [21]): 4 (Herbicidal rate of 70% or more and less than 90%); P: chickweed, herbicidal effect (criteria 0-5) (chickweed): 5 (Herbicidal rate of 90% or more (almost completely withered)); Herbicidal effect on A: late watergrass (grade 0-5) (late watergrass): 3 (Herbicidal rate of 40% or more and less than 70%); herbicidal effect on F: southern crabgrass (southern crabgrass [22]): 4 (Herbicidal rate of 70% or more and less than 90%)
2 | Cc1nn(C)c(=O)c(-c2c(-c3cccc(OCc4ccccc4)c3)sc3ccc(F)cc23)c1O [2-267] | 5 (Herbicidal rate of 90% or more (almost completely withered)) | 4 (Herbicidal rate of 70% or more and less than 90%) | 0 (Herbicidal rate of 5% or less (almost no effect)) | 0 (Herbicidal rate of 5% or less (almost no effect)) | 0 (Herbicidal rate of 5% or less (almost no effect)) | 3 (Herbicidal rate of 40% or more and less than 70%) | 0 (Herbicidal rate of 5% or less (almost no effect)) | 3 (Herbicidal rate of 40% or more and less than 70%) | 0 (Herbicidal rate of 5% or less (almost no effect)) | 5 (Herbicidal rate of 90% or more (almost completely withered)) | 2 (Herbicidal rate of 20% or more and less than 40%) | 4 (Herbicidal rate of 70% or more and less than 90%) | 4 (Herbicidal rate of 70% or more and less than 90%) | 0 (Herbicidal rate of 5% or less (almost no effect)) | 5 (Herbicidal rate of 90% or more (almost completely withered)) | 3 (Herbicidal rate of 40% or more and less than 70%) | 0 (Herbicidal rate of 5% or less (almost no effect)) | 0 (Herbicidal rate of 5% or less (almost no effect)) | 5 (Herbicidal rate of 90% or more (almost completely withered)) | 5 (Herbicidal rate of 90% or more (almost completely withered)) | herbicidal effect on J: blackgrass (blackgrass [23]): 0 (Herbicidal rate of 5% or less (almost no effect)); M: velvetleaf, herbicidal effect (criteria 0-5) (velvetleaf [16]): 3 (Herbicidal rate of 40% or more and less than 70%); herbicidal effect on H: barnyard grass (barnyard grass [17]): 5 (Herbicidal rate of 90% or more (almost completely withered)); N: redroot pigweed, herbicidal effect (criteria 0-5) (redroot pigweed [18]): 4 (Herbicidal rate of 70% or more and less than 90%); herbicidal effect on I: wild oat (wild oat [19]): 0 (Herbicidal rate of 5% or less (almost no effect)); L: windgrass, herbicidal effect (criteria 0-5) (windgrass [20]): 0 (Herbicidal rate of 5% or less (almost no effect)); J: blackgrass, herbicidal effect (criteria 0-5) (blackgrass [21]): 2 (Herbicidal rate of 20% or more and less than 40%); P: chickweed, herbicidal effect (criteria 0-5) (chickweed): 5 (Herbicidal rate of 90% or more (almost completely withered)); Herbicidal effect on A: late watergrass (grade 0-5) (late watergrass): 2 (Herbicidal rate of 20% or more and less than 40%); herbicidal effect on F: southern crabgrass (southern crabgrass [22]): 5 (Herbicidal rate of 90% or more (almost completely withered))
